Results as given in patent US20050147662A1, “Compounds and compositions for delivering active agents” (Emisphere Technologies, Inc., priority 2003, published 2005).

melting point: 85 to 88 °C
Structure (SMILES): CN(CCCCCCCC(=O)O)C(=O)c1ccccc1O [Compound 1, 8-[(2-Hydroxy-benzoyl)-methyl-amino]-octanoic acid]
